Columns and labels:
Assay type in all cases: in vivo
sorghum [1] = test: Herbicidal activity test against upland field weeds (foliar treatment test); parameters: key to Foliar treatment herbicidal activity, Sorghum: 0 (no control); 100 (complete control); conditions: 50 g ai/ha, scale 0-100; for plant injury at 50 g/ha: Sorghum
How it was run: (§1)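 Weeds were raised from seed or rootstocks in horticultural soil in a greenhouse (30±5° C., 14/10 h light/dark), then foliage was hand-sprayed with compound at 50 or 75 g a.i./ha in 50% acetone with 0.1% Tween-20. Control was scored visually 0–100 against untreated plants after 14 days, or 21 if needed.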

barnyard grass [2] = test: as above; parameters: key to Foliar treatment herbicidal activity, barnyard grass: 0 (no control); 100 (complete control); conditions: 50 g ai/ha, scale 0-100; for pest or weed control at 50 g/ha: Echinochloa crus-galli
How it was run: as §1

crabgrass [3] = test: as above; parameters: key to Foliar treatment herbicidal activity, Crabgrass: 0 (no control); 100 (complete control); conditions: 50 g ai/ha, scale 0-100; for pest or weed control at 50 g/ha: Digitaria sanguinalis
How it was run: as §1

fall panicum [4] = test: as above; parameters: key to Foliar treatment herbicidal activity, Fall panicum: 0 (no control); 100 (complete control); conditions: 50 g ai/ha, scale 0-100; for pest or weed control at 50 g/ha: Panicum dichotomiflorum
How it was run: as §1

black nightshade [5] = test: as above; conditions: 50 g ai/ha, scale 0-100; for pest or weed control at 50 g/ha: Solanum nigrum
How it was run: as §1

indian jointvetch [6] = test: as above; parameters: key to Foliar treatment herbicidal activity, Indian jointvetch: 0 (no control); 100 (complete control); conditions: 50 g ai/ha, scale 0-100
How it was run: as §1

velvetleaf [7] = test: as above; parameters: key to Foliar treatment herbicidal activity, velvet leaf: 0 (no control); 100 (complete control); conditions: 50 g ai/ha; for pest or weed control at 50 g/ha: Abutilon theophrasti, scale 0-100, read-out: Foliar treatment herbicidal activity, velvet leaf; for Foliar treatment herbicidal activity, velvet leaf: scale 0-100
How it was run: as §1

cocklebur = test: as above; parameters: key to Foliar treatment herbicidal activity, Cocklebur: 0 (no control); 100 (complete control); conditions: 50 g ai/ha, scale 0-100; for pest or weed control at 50 g/ha: Xanthium strumarium
How it was run: as §1

bindweed [8] = test: as above; parameters: key to Foliar treatment herbicidal activity, Bindweed: 0 (no control); 100 (complete control); conditions: 50 g ai/ha, scale 0-100
How it was run: as §1

sorghum [9] = test: Herbicidal activity test against upland field weeds (soil treatment test); parameters: key to Soil treatment herbicidal activity, Sorghum: 0 (no control); 100 (complete control); conditions: 50 g ai/ha, scale 0 (no control) to 100 (complete control)
Protocol: (§2) Experimental Example 2: Herbicidal Activity Test Against Upland Field Weeds (Soil Treatment Test) Soil treatment was performed as follows: After filling a square plastic pot having a surface area of 350 cm^2 with sandy loam mixed with 1 g per pot (350 cm^2) of horticultural mixed fertilizer (N:P:K=11:10:11), seeds (10˜15 grains) or rootstocks (2 pieces) of 5 kinds of grassy weeds of sorghum, barnyard grass, quack grass, crabgrass, fall panicum, and 5 kinds of broadleaf weeds of black nightshade, indian jointvetch, velvetleaf, cocklebur, bindweed, which had been stored in a low temperature (6° C.), were sown. The day after sowing, test compound solutions were made by diluting with a preparation solution (including 50% acetone, 0.1% Tween-20) so that the final treatment amount of the test compounds was 50 or 75 g a.i./ha. The prepared test compound solution was used for treating soil surface by hand-spraying 14 mL per pot in a fume hood. After the treatment, it was managed under the same greenhouse conditions (average temperature 30±5° C., light/dark=14/10 hours), and after 14 days (after 21 days if necessary), the external symptoms and efficacy were investigated according to the scale of 0 (no control) to 100 (complete control). The results of Table 8 were obtained by evaluating weed control value to the untreated control by conducting visual assessment.

barnyard grass [10] = test: as above; parameters: key to Soil treatment herbicidal activity, barnyard grass: 0 (no control); 100 (complete control); conditions: 50 g ai/ha, scale 0 (no control) to 100 (complete control)
Protocol: as §2

quack grass [11] = test: as above; parameters: key to Soil treatment herbicidal activity, quack grass: 0 (no control); 100 (complete control); conditions: 50 g ai/ha, scale 0 (no control) to 100 (complete control)
Protocol: as §2

crabgrass [12] = test: as above; parameters: key to Soil treatment herbicidal activity, Crabgrass: 0 (no control); 100 (complete control); conditions: 50 g ai/ha, scale 0 (no control) to 100 (complete control); for pest or weed control at 50 g/ha: Digitaria sanguinalis
Protocol: as §2

fall panicum [13] = test: as above; parameters: key to Soil treatment herbicidal activity, Fall panicum: 0 (no control); 100 (complete control); conditions: 50 g ai/ha, scale 0 (no control) to 100 (complete control)
Protocol: as §2

black nightshade [14] = test: as above; parameters: key to Soil treatment herbicidal activity, black nightshade: 0 (no control); 100 (complete control); conditions: 50 g ai/ha, scale 0 (no control) to 100 (complete control)
Protocol: as §2

indian jointvetch [15] = test: as above; parameters: key to Soil treatment herbicidal activity, Indian jointvetch: 0 (no control); 100 (complete control); conditions: 50 g ai/ha, scale 0 (no control) to 100 (complete control)
Protocol: as §2

velvetleaf [16] = test: as above; parameters: key to Soil treatment herbicidal activity, velvet leaf: 0 (no control); 100 (complete control); conditions: 50 g ai/ha, scale 0 (no control) to 100 (complete control)
Protocol: as §2

bindweed [17] = test: as above; parameters: key to Soil treatment herbicidal activity, Bindweed: 0 (no control); 100 (complete control); conditions: 50 g ai/ha, scale 0 (no control) to 100 (complete control)
Protocol: as §2

quack grass [18] = test: Herbicidal activity test against upland field weeds (foliar treatment test); parameters: key to Foliar treatment herbicidal activity, quack grass: 0 (no control); 100 (complete control); conditions: 50 g ai/ha, scale 0-100
How it was run: as §1

Row | SMILES | Foliar treatment herbicidal activity, Sorghum (sorghum [1]) | Foliar treatment herbicidal activity, barnyard grass (barnyard grass [2]) | Foliar treatment herbicidal activity, Crabgrass (crabgrass [3]) | pest or weed control at 50 g/ha (black nightshade [5]) [%] | pest or weed control at 50 g/ha (indian jointvetch [6]) [%] | pest or weed control at 50 g/ha (velvetleaf [7]) [%] | pest or weed control at 50 g/ha (cocklebur) [%] | pest or weed control at 50 g/ha (bindweed [8]) [%] | Soil treatment herbicidal activity, Sorghum (sorghum [9]) | Soil treatment herbicidal activity, barnyard grass (barnyard grass [10]) | Soil treatment herbicidal activity, quack grass (quack grass [11]) | Soil treatment herbicidal activity, Fall panicum (fall panicum [13]) | Soil treatment herbicidal activity, black nightshade (black nightshade [14]) | Soil treatment herbicidal activity, Indian jointvetch (indian jointvetch [15]) | Soil treatment herbicidal activity, velvet leaf (velvetleaf [16]) | pest or weed control at 50 g/ha (bindweed [17]) [%] | plant injury at 50 g/ha (sorghum [1]) [%] | pest or weed control at 50 g/ha (fall panicum [4]) [%] | Soil treatment herbicidal activity, Crabgrass (crabgrass [12]) | Foliar treatment herbicidal activity, quack grass (quack grass [18]) | also measured
1 | CN(C(=O)c1ccc(C(F)(F)F)nc1OCc1nnnn1C(F)F)c1nnnn1C [Compound No. 1-8, 2-((1-(difluoromethyl)-1H-tetrazol-5-yl)methoxy)-N-methyl-N-(1-methyl-1H-tetrazol-5-yl)-6-(trifluoromethyl)nicotinamide] | 0 | 0 | 0 | 98 | 70 | 20 | 20 | 40 | 0 | 0 | 0 | 0 | 0 | 100 | 100 | 50 |  |  |  |  | Foliar treatment herbicidal activity, Fall panicum (fall panicum [4]): 0; pest or weed control at 50 g/ha (crabgrass [12]): 30%
2 | CN(Cc1nnnn1C)c1nc(C(F)(F)F)ccc1C(=O)Nc1nnnn1C [Compound No. 1-27, 2-(methyl((1-methyl-1H-tetrazol-5-yl)methyl)amino)-N-(1-methyl-1H-tetrazol-5-yl)-6-(trifluoromethyl)nicotinamide] |  | 100 | 100 |  |  |  |  |  | 100 | 100 |  | 100 | 100 | 100 | 100 | 80 | 80 | 80 | 100 |  | pest or weed control at 50 g/ha (quack grass [18]): 30%; Foliar treatment herbicidal activity, Indian jointvetch (indian jointvetch [6]): 100; Foliar treatment herbicidal activity, velvet leaf (velvetleaf [7]): 100; Foliar treatment herbicidal activity, Cocklebur (cocklebur): 100; Foliar treatment herbicidal activity, Bindweed (bindweed [8]): 100; pest or weed control at 50 g/ha (quack grass [11]): 20%
3 | Cn1cnc(COc2nc(C(F)(F)F)ccc2C(=O)Nc2nnnn2C)n1 [Compound No. 2-43, 2-((1-methyl-1H-1,2,4-triazol-3-yl)methoxy)-N-(1-methyl-1H-tetrazol-5-yl)-6-(trifluoromethyl)nicotinamide] |  |  |  | 95 | 20 | 40 | 20 | 30 | 0 | 0 | 0 | 0 |  |  |  |  | 20 | 50 | 0 | 0 | pest or weed control at 50 g/ha (barnyard grass [2]): 60%; pest or weed control at 50 g/ha (crabgrass [3]): 30%; pest or weed control at 50 g/ha (indian jointvetch [15]): 20%; pest or weed control at 50 g/ha (velvetleaf [16]; Abutilon theophrasti, read-out: Soil treatment herbicidal activity, velvet leaf): 30%; Soil treatment herbicidal activity, Bindweed (bindweed [17]): 0
4 | Cn1cnc(COCc2nc(C(F)(F)C(F)(F)F)ccc2C(=O)Nc2nnnn2C)n1 [Compound No. 2-83, 2-(((1-methyl-1H-1,2,4-triazol-3-yl)methoxy)methyl)-N-(1-methyl-1H-tetrazol-5-yl)-6-(perfluoroethyl)nicotinamide] |  |  |  | 98 | 70 | 70 | 60 | 40 | 0 | 0 | 0 |  | 100 |  | 100 | 40 | 20 | 70 |  | 0 | pest or weed control at 50 g/ha (barnyard grass [2]): 90%; pest or weed control at 50 g/ha (crabgrass [3]): 70%; pest or weed control at 50 g/ha (crabgrass [12]): 70%; pest or weed control at 50 g/ha (fall panicum [13]; Panicum dichotomiflorum): 60%; pest or weed control at 50 g/ha (indian jointvetch [15]): 80%
5 | CCOC(=O)OC(C)N(C(=S)c1ccc(C(F)(F)F)nc1CSCc1nnn(C)n1)c1nnnn1C (stereo not shown) [Compound No. 4-9, ethyl (1-(N-(1-methyl-1H-tetrazol-5-yl)-2-((((2-methyl-2H-tetrazol-5-yl)methyl)thio)methyl)-6-(trifluoromethyl)pyridin-3-carbothioamido)ethyl)carbonate] | 70 | 100 | 98 |  |  |  |  |  | 0 | 0 | 0 | 0 | 100 | 100 | 100 |  |  |  | 0 | 0 | Foliar treatment herbicidal activity, Fall panicum (fall panicum [4]): 90; Foliar treatment herbicidal activity, black nightshade (black nightshade [5]): 98; Foliar treatment herbicidal activity, Indian jointvetch (indian jointvetch [6]): 98; Foliar treatment herbicidal activity, velvet leaf (velvetleaf [7]): 98; Foliar treatment herbicidal activity, Cocklebur (cocklebur): 100; Foliar treatment herbicidal activity, Bindweed (bindweed [8]): 100

Source: patent US12495798B2, “Nicotinamide compound and herbicidal composition comprising compound” (KOREA RESEARCH INSTITUTE OF CHEMICAL TECHNOLOGY, priority 2019, dated 2025)
